Values joined by “and” are separate entries in the source; they are usually repeats but may differ in a detail not shown here. Equal values may be shown once. Read-outs that look alike come from different tables or passages of the source.
How the values were obtained:
[1] = Permeability through Caco-2 cell monolayer; type: in vitro ADME; conditions: human, Caco-2; for Papp A→B at 2 h, 10 µM: A->B transfer, pH 6.5 -> pH 7.4, 2 hours at 37 °C; for efflux ratio at 2 h, 10 µM: efflux = Papp B-A / Papp A-B
Procedure, shortened: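 Caco-2 monolayers grown for 21 days (Lucifer Yellow integrity check) received 10 µM compound apically at pH 6.5 (A→B) or basolaterally at pH 7.4 with 1% BSA on the basolateral side (B→A). After 2 h at 37 °C, both chambers were quantified by HPLC. Efflux ratio = Papp B→A / Papp A→B.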

[2] = Enzyme stability in human liver microsomes; type: in vitro ADME; conditions: pH 7.4; 0,5 mg/mL pooled human liver microsomes; 10 µM compound; 37°C; pH=7,4
Procedure, shortened: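 Pooled human liver microsomes (0,5 mg/mL) incubated at 37 °C with 10 µM compound, 2 mM β-NAD and 4 mM MgCl2 in 0,1 M sodium phosphate, pH 7,4. Samples quenched with acetonitrile and analysed by HPLC. Elimination rate constant taken from the slope of log peak area versus time, giving t1/2 and CLint.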

[3] = Chemical stability in human blood plasma; type: in vitro ADME; conditions: pooled human blood plasma; 10 µM; 4 hours at 37°C; substance amount in % after thermostatting
Procedure, shortened: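 Pooled plasma from ten healthy human donors; compound diluted from 10 mM DMSO stock to 10 µm final and incubated 4 h at 37°C. After acetonitrile protein precipitation, HPLC peak areas before and after incubation were compared; value is % compound remaining.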

[4] = General cytotoxicity test on HepG2 cells; type: cell-based; conditions: human, 72 h incubation, 200 to 0.78 µM, average values of several tests, read-out: Hep-G2 CC50, mkM
Protocol: Cell viability was assessed using the above method. Table 6. […] The results are presented as average values of activity obtained in several tests.

MV4-11 = assay: Cell-based antiproliferative test (AlamarBlue), MV4-11; conditions: Homo sapiens, MV4-11, 120 h, 120 h incubation; average values of several tests; read-out: MV-4-11 IC50, mkM
HL-60 = assay: Cell-based antiproliferative test (AlamarBlue), HL-60; conditions: 120 h incubation, average values of several tests, read-out: HL-60 IC50, mkM
Protocol: (§1) Antiproliferative activity of CDK8 inhibitors according to the present invention was measured in a cell-based test on continuous cell cultures MV4-11 (biphenotypic myelomonocytic leukemia, ATCC® CRL-9591™), KG-1 (acute myeloid leukemia, ATCC® CCL-246™), HL-60 (acute promyelocytic leukemia, ATCC® CCL-240™) using a vital stain AlamarBlue (ThermoFisher, #DAL1100). The cells were grown in RPMI-1640 (PanEco, #C330p) medium with addition of 10% FBS (Gibco, #16140-071); washed and resuspended in culture medium with 10% FBS (Gibco, #16140-071) in 96-well culture plates (Corning, #3599) with ≈ 10 ×10^3 cells in […] of medium per well. The compounds in question were dissolved in DMSO and diluted with a medium with 10% FBS (Gibco, #16140-071) to a final concentration ranging form 0 to 100 µM. […] of diluted compounds were then added to each well (final DMSO concentration was less than 1%) and incubated under 5% CO2 atmosphere at 37°C for 120 h. After incubating, 15 µL of AlamarBlue (ThermoFisher, #DAL1100) reagent was added per well, contents of plates were mixed in an orbital shaker (Biosan, Latvia) and further incubated for 3-5 h at 37°C under 5% CO2 atmosphere. Number of living cells was estimated using a microplate spectrophotometer (Tecan Infinite M200Pro, Switzerland) measuring fluorescent signal at the excitation wavelength (λEx) of 540 nm and emission wavelength (λEm) of 590 nm.
(§2) IC50 was calculated using Magellan 7.2 software (Tecan, Switzerland) approximating experimental points by four-parameter logistic model with the optimization by Levenberg-Marquardt (table 7, table 7).

[5] = Chemical stability in simulated gastric fluid (SGF); type: physicochemical; conditions: SGF without enzymes, pH=1,4; 10 µm; 2 hours at 37°C; substance amount in % after thermostatting
Procedure, shortened: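 Compounds at […] (diluted from DMSO stock) were incubated for 2 h at 37 °C in enzyme-free simulated gastric fluid, pH=1,4. HPLC peak areas before and after incubation gave the % of compound remaining.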

KG-1 = assay: Cell-based antiproliferative test (AlamarBlue), KG-1; conditions: Homo sapiens, KG-1; 120 h incubation; average values of several tests; read-out: KG-1 IC50, mkM
Protocol: as §1, §2

[6] = Enzyme stability in human liver S9 fractions; type: in vitro ADME; conditions: pH 7.4; 0,5 mg/mL pooled human liver S9 fractions; 10 µM compound; 37°C; pH=7,4
Protocol: Measuring of candidates' enzyme stability enabled estimation of the stability of the present compounds towards the action of enzymes in human liver S9 fractions.
Enzyme degradation rate was measured by incubating the reaction mixture in a dry block thermostat at 37°C, said reaction mixture comprising 0,5 mg/mL of pooled human liver S9 fractions (XenoTech, USA, cat#H0610), 10 µM compound, 2 mM β-nicotinamide adenine dinucleotide (Carbosynth, UK, cat#NN10871) and 4 mM magnesium chloride in 0,1 M sodium-phosphate buffer, pH=7,4. The reaction was quenched with acetonitrile (100 µL of acetonitrile / 100 µL of the reaction mixture). After quenching, the samples were centrifuged at 10000 rpm for 10 minutes. Supernatant fluid was tested by chromatographic technique using Agilent1200 (Agilent, USA). Chromatographic analysis was performed in a gradient elution regime with a flow rate of 1 mL/min. A graph of the logarithm of substance's peak area as a function of time was made.

SMILES | Papp A→B at 2 h, 10 µM [1] | efflux ratio at 2 h, 10 µM [1] | microsomal CLint at 10 µM [2] | Stability in blood plasma, % [3] | CC50 at 72 h ([4]; HepG2 cells) | IC50 (MV4-11) | IC50 (HL-60; Homo sapiens, HL-60, 120 h) | Stability in SGF, % [5] | IC50 (KG-1) | CC50 at 72 h [4] | IC50 (HL-60) | microsomal CLint at 10 µM [6]
COCCNC(=O)c1ccc2nccc(-c3ccc(-c4cnn(C)c4)cc3)c2c1 [CDK8-6-14, N-(2-Methoxyethyl)-4-(4-(1-methyl-1H-pyrazol-4-yl)phenyl)quinoline-6-carboxamide] | 64.1 ×10⁻⁶ cm/s | 0.44 | 11.8 µL/min/mg | 100% | > 50 µM | 11.7 µM | 66.5 µM | 100% | 9.6 µM |  |  | 
O=C(C1CN(c2ccc3ncn(-c4ccc(-c5cn[nH]c5)cc4)c3c2F)C1)N1CCOCC1 [CDK8-1-14, (1-(1-(4-(1H-Pyrazol-4-yl)phenyl)-7-fluoro-1H-benzo[d]imidazol-6-yl)azetidin-3-yl)(morpholino)methanone] | 39.9 ×10⁻⁶ cm/s | 0.79 | 12.4 µL/min/mg | 100% | > 100 µM |  | 33.9 µM | 92.5% and 100% | 23.2 µM | > 50 µM | 60.7 µM | 
CO[C@@H]1CCCN(C(=O)c2cnc3cncc(-c4ccc(-c5cnn(C)c5)cc4)c3c2)C1 [CDK8-3-21, (R)-(3-Methoxypiperidin-1-yl)(5-(4-(1-methyl-1H-pyrazol-4-yl)phenyl)-1,7-naphthyridin-3-yl)methanone] |  |  |  |  | > 100 µM | 0.764 µM |  |  |  |  |  | 12.9 µL/min/mg
CCN(CC)C(=O)c1cnc2cncc(-c3ccc(-c4cnn(C)c4)cc3)c2c1 [CDK8-3-23, N,N-Diethyl-5-(4-(1-methyl-1H-pyrazol-4-yl)phenyl)-1,7-naphthyridine-3-carboxamide] |  |  |  |  | > 100 µM | 0.413 µM |  |  |  |  |  | 9.2 µL/min/mg
O=C(c1ccc2ncn(-c3ccc(-c4cn[nH]c4)cc3)c2c1)N1CCCCC1 [CDK8-1-3, (1-(4-(1H-Pyrazol-4-yl)phenyl)-1H-benzo[d]imidazol-6-yl)(piperidin-1-yl) methanone] | 64.1 ×10⁻⁶ cm/s | 0.44 | 24.8 µL/min/mg | 97.7% | 59.1 µM | 2.08 µM | 81.4 µM | 100% | 27.6 µM |  |  | 
COc1cc(-c2cnc3[nH]cc(C(=O)c4cccnc4)c3c2)ccc1N1CCOCC1 [CDK8-4-27, (5-(3-Methoxy-4-morpholinophenyl)-1H-pyrrolo[2,3-b]pyridin-3-yl) (pyridin-3-yl) methanone] | 84.6 ×10⁻⁶ cm/s | 0.25 | 7.2 µL/min/mg | 100% | > 100 µM | 0.05 µM | > 100 µM | 100% | 5.21 µM |  |  | 
COCCNC(=O)c1cnc2cncc(-c3ccc(-c4cnn(C)c4)cc3)c2c1 [CDK8-3-18, N-(2-Methoxyethyl)-5-(4-(1-methyl-1H-pyrazol-4-yl)phenyl)-1,7-naphthyridine-3-carboxamide] | 46.9 ×10⁻⁶ cm/s | 0.9 | 10.4 µL/min/mg | 100% | > 200 µM | 0.19 µM | 35 µM | 100% | 0.08 µM |  |  | 
CN(C)C(=O)c1cnc2cncc(-c3ccc(-c4cnn(C)c4)cc3)c2c1 [CDK8-3-22, N,N-Methyl-5-(4-(1-methyl-1H-pyrazol-4-yl)phenyl)-1,7-naphthyridine-3-carboxamide] |  |  |  |  | > 100 µM | 0.432 µM |  |  |  |  |  | 3 µL/min/mg
Cn1cc(-c2ccc(-c3cnc(N)c4ncc(C(=O)NCC5CC5)cc34)cc2)cn1 [CDK8-3-40, 8-Amino-N-(cyclopropylmethyl)-5-(4-(1-methyl-1H-pyrazol-4-yl)phenyl)-1,7-naphthyridine-3-carboxamide] |  |  |  |  | 200 µM | 0.009 µM |  |  |  |  |  | 2.95 µL/min/mg
Cn1cc(-c2ccc(-c3ccnc4ccc(N5CCCC5=O)cc34)cc2)cn1 [CDK8-6-13, 1-(4-(4-(1-Methyl-1H-pyrazol-4-yl)phenyl)quinolin-6-yl) pyrrolidin-2-one] |  |  | 22.6 µL/min/mg | 98.9% | > 200 µM | 19.7 µM | > 60 µM | 99.7% | 12.3 µM |  |  | 
Cn1cc(-c2ccc(-c3cncc4ncc(C(=O)N5CCC5)cc34)cc2)cn1 [CDK8-3-14, Azetidin-1-yl-(5-(4-(1-methyl-1H-pyrazol-4-yl)phenyl)-1,7-naphthyridin-3-yl) methanone] | 39.8 ×10⁻⁶ cm/s | 1.35 | 13.6 µL/min/mg | 100% | > 100 µM | 0.2 µM | 69.8 µM | 100% | 0.05 µM |  |  | 
CO[C@@H]1CCN(C(=O)c2cnc3cncc(-c4ccc(-c5cnn(C)c5)cc4)c3c2)C1 [CDK8-3-19, (R)-(3-Methoxypyrrolidin-1-yl)(5-(4-(1-methyl-1H-pyrazol-4-yl)phenyl)-1,7-naphthyridin-3-yl)methanone] |  |  |  |  | > 100 µM | 0.912 µM |  |  |  |  |  | 2.9 µL/min/mg
